# Results from ChEMBL document CHEMBL5247656, “Discovery of a Potent, Cooperative, and Selective SOS1 PROTAC ZZ151 with In Vivo Antitumor Efficacy in KRAS-Mutant Cancers” (J Med Chem, 2023).
# Activity calls are given as the source filed them. The calls are words filed in the database; no cut-off is given here.
# What was measured:
# [1] = molecular target: von Hippel-Lindau disease tumor suppressor/Son of sevenless homolog 1 (Homo sapiens, UniProt P40337+Q07889); experiment: PROTAC activity at VHL/SOS1 in human NCI-H358 cells assessed as induction of SOS1 protein degradation incubated for 24 hrs by Immunoblot analysis; assay type: cell-based
# [2] = molecular target: T1, von Hippel-Lindau disease tumor suppressor/Son of sevenless homolog 1 (Homo sapiens) (UniProt Q07889+P40337); experiment: PROTAC activity at VHL/SOS1 in human NCI-H358 cells harboring KRAS G12C mutant assessed as induction of SOS1 degradation at 1 uM preincubated with (R)-1-(4-(4-((1-(3-amino-5-(trifluoromethyl)phenyl)ethyl)amino)-7-methoxy-2-methylquinazolin-6-yl)piperidin-1-yl)ethanone for 4 hrs followed by compound treatment and measured after 24 hrs by Immunoblot analysis; assay type: cell-based
# [3] = molecular target: T1, von Hippel-Lindau disease tumor suppressor/Son of sevenless homolog 1 (Homo sapiens); experiment: PROTAC activity at VHL/SOS1 in human Calu-1 cells harboring KRAS G12C mutant assessed as induction of SOS1 degradation by measuring maximal efficacy at 1 to 2000 nM incubated for 24 hrs by Immunoblot analysis relative to control; assay type: cell-based; conditions: dose 1-2000 nM
# [4] = molecular target: T1, von Hippel-Lindau disease tumor suppressor/Son of sevenless homolog 1 (Homo sapiens); experiment: PROTAC activity at VHL/SOS1 in human ASPC1 cells harboring KRAS G12D mutant assessed as induction of SOS1 degradation by measuring maximal efficacy at 1 to 2000 nM incubated for 24 hrs by Immunoblot analysis relative to control; assay type: cell-based; conditions: dose 1-2000 nM
# [5] = molecular target: T1, von Hippel-Lindau disease tumor suppressor/Son of sevenless homolog 1 (Homo sapiens); experiment: PROTAC activity at VHL/SOS1 in human HPAF-II cells harboring KRAS G12D mutant assessed as induction of SOS1 degradation by measuring maximal efficacy at 1 to 2000 nM incubated for 24 hrs by Immunoblot analysis relative to control; assay type: cell-based; conditions: dose 1-2000 nM
# [6] = molecular target: T1, von Hippel-Lindau disease tumor suppressor/Son of sevenless homolog 1 (Homo sapiens); experiment: PROTAC activity at VHL/SOS1 in human PANC-1 cells harboring KRAS G12D mutant assessed as induction of SOS1 degradation by measuring maximal efficacy at 1 to 2000 nM incubated for 24 hrs by Immunoblot analysis relative to control; assay type: cell-based; conditions: dose 1-2000 nM
# [7] = molecular target: T1, von Hippel-Lindau disease tumor suppressor/Son of sevenless homolog 1 (Homo sapiens); experiment: PROTAC activity at VHL/SOS1 in human SW480 cells harboring KRAS G12V mutant assessed as induction of SOS1 degradation by measuring maximal efficacy at 1 to 2000 nM incubated for 24 hrs by Immunoblot analysis relative to control; assay type: cell-based; conditions: dose 1-2000 nM
# [8] = molecular target: T1, von Hippel-Lindau disease tumor suppressor/Son of sevenless homolog 1 (Homo sapiens); experiment: PROTAC activity at VHL/SOS1 in human SW620 cells harboring KRAS G12V mutant assessed as induction of SOS1 degradation by measuring maximal efficacy at 1 to 2000 nM incubated for 24 hrs by Immunoblot analysis relative to control; assay type: cell-based; conditions: dose 1-2000 nM
# [9] = molecular target: T1, von Hippel-Lindau disease tumor suppressor/Son of sevenless homolog 1 (Homo sapiens); experiment: PROTAC activity at VHL/SOS1 in human A549 cells harboring KRAS G12S mutant assessed as induction of SOS1 degradation by measuring maximal efficacy at 1 to 2000 nM incubated for 24 hrs by Immunoblot analysis relative to control; assay type: cell-based; conditions: dose 1-2000 nM
# NCI-H358 = experiment: Antiproliferative activity against human NCI-H358 cells harboring KRAS G12C mutant assessed as inhibition of cell proliferation incubated for 7 days by CellTiterGlo-3D proliferation assay; assay type: functional, cell-based; conditions: NCI-H358, 168 h
# SW-620 = experiment: Antiproliferative activity against human SW620 cells harboring KRAS G12V mutant assessed as inhibition of cell proliferation incubated for 7 days by CellTiterGlo-3D proliferation assay; assay type: functional, cell-based; conditions: SW-620, 168 h
# A549 = experiment: Antiproliferative activity against human A549 cells harboring KRAS G12S mutant assessed as inhibition of cell proliferation incubated for 7 days by CellTiterGlo-3D proliferation assay; assay type: functional, cell-based; conditions: A549, 168 h
# [10] = molecular target: T1, von Hippel-Lindau disease tumor suppressor/Son of sevenless homolog 1 (Homo sapiens); experiment: PROTAC activity at VHL/SOS1 in human NCI-H358 cells harboring KRAS G12C mutant assessed as induction of SOS1 degradation at 1 uM incubated for 2 to 4 hrs by Immunoblot analysis; assay type: cell-based; conditions: time 2-4 hrs
# ASPC1 [11] = experiment: Downregulation of ALKBH4 in human ASPC1 cells at 1 uM incubated for 6 hrs by quantitative proteomics analysis; assay type: functional, cell-based
# ASPC1 [12] = experiment: Antitumor activity against human ASPC1 cells harboring KRAS G12D mutant xenografted in BALB/c nude mouse assessed as tumor growth inhibition at 20 mg/kg, ip administered once daily for 3 weeks relative to control; assay type: functional; conditions: ASPC1, 504 h, read-out: TGI
# [13] = Toxicity in BALB/c nude mouse xenografted with human ASPC1 cells harboring KRAS G12D mutant assessed as body weight loss at 10 to 20 mg/kg, ip administered once daily for 3 weeks; assay type: organism-based; conditions: in vivo, 504 h, dose 10-20 mg/kg
# [14] = molecular target: T1, von Hippel-Lindau disease tumor suppressor/Son of sevenless homolog 1 (Homo sapiens); experiment: In vivo PROTAC activity at VHL/SOS1 in human ASPC1 cells harboring KRAS G12D mutant xenografted BALB/c nude mouse assessed as decrease in phosphorylated ERK expression at 10 to 20 mg/kg, ip administered once daily for 3 weeks by Immunoblot analysis; assay type: functional, organism-based; conditions: dose 10-20 mg/kg
# [15] = molecular target: T1, von Hippel-Lindau disease tumor suppressor/Son of sevenless homolog 1 (Homo sapiens); experiment: In vivo PROTAC activity at VHL/SOS1 in human SW620 cells harboring KRAS G12V mutant xenografted BALB/c nude mouse assessed as induction of SOS1 degradation at 10 to 20 mg/kg, ip administered once daily for 2 weeks by Immunoblot analysis; assay type: functional, organism-based; conditions: SW-620, dose 10-20 mg/kg
# T1 sequence (P40337 whole entry, looked up): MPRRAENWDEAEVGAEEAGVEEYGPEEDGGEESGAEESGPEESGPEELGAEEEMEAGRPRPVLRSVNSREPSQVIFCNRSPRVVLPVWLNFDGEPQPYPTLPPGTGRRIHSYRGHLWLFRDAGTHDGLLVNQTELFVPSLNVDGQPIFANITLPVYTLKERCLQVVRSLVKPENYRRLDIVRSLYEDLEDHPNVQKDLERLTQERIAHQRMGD
# T1 sequence (Q07889 whole entry, looked up): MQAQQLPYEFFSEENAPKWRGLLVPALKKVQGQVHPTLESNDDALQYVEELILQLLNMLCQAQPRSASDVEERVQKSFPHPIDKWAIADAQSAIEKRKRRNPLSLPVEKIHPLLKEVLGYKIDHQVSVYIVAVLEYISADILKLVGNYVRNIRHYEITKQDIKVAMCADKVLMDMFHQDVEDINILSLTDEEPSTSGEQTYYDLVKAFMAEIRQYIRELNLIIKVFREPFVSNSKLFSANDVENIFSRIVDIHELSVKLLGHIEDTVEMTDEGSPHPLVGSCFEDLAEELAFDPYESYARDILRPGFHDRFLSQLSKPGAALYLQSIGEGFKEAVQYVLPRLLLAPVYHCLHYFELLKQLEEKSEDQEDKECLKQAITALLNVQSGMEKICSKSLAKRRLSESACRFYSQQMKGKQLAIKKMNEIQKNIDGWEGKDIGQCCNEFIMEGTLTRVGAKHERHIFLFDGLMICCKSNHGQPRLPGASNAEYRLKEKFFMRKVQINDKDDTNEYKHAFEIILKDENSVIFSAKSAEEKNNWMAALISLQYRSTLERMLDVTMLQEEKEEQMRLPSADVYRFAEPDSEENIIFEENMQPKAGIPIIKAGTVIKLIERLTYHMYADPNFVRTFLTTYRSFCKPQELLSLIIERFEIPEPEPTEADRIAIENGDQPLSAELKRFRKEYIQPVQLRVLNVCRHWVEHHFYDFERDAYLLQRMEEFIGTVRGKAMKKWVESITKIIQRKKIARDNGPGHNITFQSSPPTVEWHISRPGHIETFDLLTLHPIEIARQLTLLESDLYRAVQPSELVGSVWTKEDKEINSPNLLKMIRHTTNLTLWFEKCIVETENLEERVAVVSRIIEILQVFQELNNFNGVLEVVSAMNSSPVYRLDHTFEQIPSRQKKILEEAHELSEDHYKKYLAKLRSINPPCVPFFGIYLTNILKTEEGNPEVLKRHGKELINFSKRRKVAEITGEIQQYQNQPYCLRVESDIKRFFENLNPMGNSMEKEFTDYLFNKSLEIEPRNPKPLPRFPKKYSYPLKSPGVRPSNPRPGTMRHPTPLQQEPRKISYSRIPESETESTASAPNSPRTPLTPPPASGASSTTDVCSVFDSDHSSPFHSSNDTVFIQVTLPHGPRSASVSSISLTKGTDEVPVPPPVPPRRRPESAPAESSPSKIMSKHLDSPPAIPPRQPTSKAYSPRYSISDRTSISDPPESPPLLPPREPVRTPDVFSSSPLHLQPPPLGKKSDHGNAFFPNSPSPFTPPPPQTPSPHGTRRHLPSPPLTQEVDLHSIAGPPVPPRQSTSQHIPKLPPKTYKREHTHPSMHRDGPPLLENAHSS
# Chain of von Hippel-Lindau disease tumor suppressor/Son of sevenless homolog 1 (Q07889 whole entry): as the sequence (Q07889 whole entry, looked up) above
# Chain of von Hippel-Lindau disease tumor suppressor/Son of sevenless homolog 1 (P40337 whole entry): as the sequence (P40337 whole entry, looked up) above
smiles,measurement,setting,value
COc1cc2nc(C)nc(N[C@H](C)c3cc(N)cc(C(F)(F)F)c3)c2cc1C1CCN(C(=O)CCCCCC(=O)N[C@H](C(=O)N2C[C@H](O)C[C@H]2C(=O)N[C@@H](C)c2ccc(-c3scnc3C)cc2)C(C)(C)C)CC1,EC50,[1],15.7 nM
same,Activity,[2],inactive
same,Emax,[3],> 95%
same,Emax,[4],> 95%
same,Emax,[5],> 95%
same,Emax,[6],> 95%
same,Emax,[7],> 95%
same,Emax,[8],> 95%
same,Emax,[9],> 95%
same,IC50,NCI-H358,12.9 nM
same,IC50,SW-620,18.5 nM
same,IC50,A549,105 nM
same,Activity,[10],Active
same,Activity,ASPC1 [11],Active
same,inhibition in vivo at 20 mg/kg,ASPC1 [12],70.2%
same,Activity,[13],Non-Toxic
same,Activity,[14],Active
same,Activity,[15],Active
